Source: patent US20110009351A1, “SCREENING ASSAY TO IDENTIFY CORRECTORS OF PROTEIN TRAFFICKING DEFECTS” (Traffick Therepeutics Inc., priority 2007, published 2011)
Entries after “also recorded” stand apart in the source; their conditions may differ.

What was measured:
Assay type in all cases: cell-based
ΔF508-CFTR [1] = target: T1, ΔF508-CFTR (Homo sapiens, UniProt P13569, DEL508-508); assay: short-circuit current (Isc) across CFBE41o− monolayers in Ussing chambers; parameters: expressed in transfected cells; host or cells: CFBE41o- (ΔF508/ΔF508) transduced with ΔF508-CFTR, TranzVector lentivirus, provided by J. P. Clancy; conditions: 10 μM, 24 h
T1 sequence (P13569 with tags, fused parts or gaps DEL508-508): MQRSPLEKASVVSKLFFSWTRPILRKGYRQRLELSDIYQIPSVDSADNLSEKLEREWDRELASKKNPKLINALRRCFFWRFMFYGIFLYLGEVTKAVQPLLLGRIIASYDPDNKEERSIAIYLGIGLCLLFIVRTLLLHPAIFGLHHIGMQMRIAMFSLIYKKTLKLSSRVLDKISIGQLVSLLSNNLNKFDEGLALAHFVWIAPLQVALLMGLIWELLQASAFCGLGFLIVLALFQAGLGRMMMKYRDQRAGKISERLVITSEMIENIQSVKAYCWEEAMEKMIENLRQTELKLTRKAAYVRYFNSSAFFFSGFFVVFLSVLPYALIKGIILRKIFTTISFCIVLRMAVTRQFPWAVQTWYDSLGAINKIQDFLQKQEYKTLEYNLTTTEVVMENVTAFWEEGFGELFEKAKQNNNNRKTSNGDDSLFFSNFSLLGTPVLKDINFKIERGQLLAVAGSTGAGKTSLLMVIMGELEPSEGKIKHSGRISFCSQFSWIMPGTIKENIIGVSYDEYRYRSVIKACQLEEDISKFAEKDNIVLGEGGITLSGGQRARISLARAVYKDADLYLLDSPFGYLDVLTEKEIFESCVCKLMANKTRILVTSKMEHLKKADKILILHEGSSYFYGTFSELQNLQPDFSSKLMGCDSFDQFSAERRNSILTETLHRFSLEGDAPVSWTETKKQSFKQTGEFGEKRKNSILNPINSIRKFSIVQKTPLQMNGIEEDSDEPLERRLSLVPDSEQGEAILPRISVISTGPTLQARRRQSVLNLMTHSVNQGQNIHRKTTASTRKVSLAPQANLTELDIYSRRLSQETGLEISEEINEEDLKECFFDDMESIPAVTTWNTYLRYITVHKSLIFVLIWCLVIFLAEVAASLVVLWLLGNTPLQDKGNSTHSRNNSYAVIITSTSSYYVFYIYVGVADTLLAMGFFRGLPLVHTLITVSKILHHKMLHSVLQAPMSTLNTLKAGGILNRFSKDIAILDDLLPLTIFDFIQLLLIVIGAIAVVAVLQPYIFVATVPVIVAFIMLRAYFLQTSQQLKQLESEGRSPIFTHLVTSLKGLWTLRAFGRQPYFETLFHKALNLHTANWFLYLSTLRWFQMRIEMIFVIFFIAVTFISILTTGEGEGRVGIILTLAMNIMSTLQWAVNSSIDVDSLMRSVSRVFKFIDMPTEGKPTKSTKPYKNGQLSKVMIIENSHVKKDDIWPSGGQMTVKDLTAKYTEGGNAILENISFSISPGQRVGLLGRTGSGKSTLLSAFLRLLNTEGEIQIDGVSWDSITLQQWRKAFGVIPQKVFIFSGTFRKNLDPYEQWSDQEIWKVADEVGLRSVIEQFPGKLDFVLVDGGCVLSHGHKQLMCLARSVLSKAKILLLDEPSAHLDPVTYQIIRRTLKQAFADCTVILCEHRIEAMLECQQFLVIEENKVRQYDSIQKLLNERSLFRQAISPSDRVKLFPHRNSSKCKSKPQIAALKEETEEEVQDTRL
Description: Short-circuit current (Isc) was measured across monolayers in modified Ussing chambers. 1×10^6 CFBE41o^− cells were seeded onto 12-mm fibronectin-coated Snapwell inserts (Corning Incorporated, Life Sciences, New-York, N.Y.) and the apical medium was removed after 24 h. Transepithelial resistance was monitored using an EVOM epithelial voltohmmeter (World Precision Instruments, Sarasota, Fla.) and cells were used when the transepithelial resistance was 300-400 ohms·cm^2. In some experiments, F508del-CFBE41o^− monolayers were incubated at 29° C. or treated with glafenine at 37° C. for 24 h before being mounted in EasyMount chambers and voltage clamped using a VCCMC6 multichannel current-voltage clamp (Physiologic Instruments, San Diego, Calif.). The apical membrane conductance was functionally isolated by permeabilizing the basolateral membrane with 200 μg/ml nystatin and imposing an apical-to-basolateral Cl^− gradient. For these experiments the basolateral bathing solution contained (in mM) 1.2 NaCl, 115 Na-gluconate, 25 NaHCO3, 1.2 MgCl2, 4 CaCl2, 2.4, KH2PO4, 1.24 K2HPO4, 10 glucose (pH 7.4 with NaOH). The CaCl2 concentration was increased to 4 mM to compensate for the chelation of calcium by gluconate. The apical bathing solution contained (in mM) 115 NaCl, 25 NaHCO3, 1.2 MgCl2, 1.2 CaCl2, 2.4 KH2PO4, 1.24 K2HPO4, 10 mannitol (pH 7.4 with NaOH). […]

ΔF508-CFTR [2] = target: T1, ΔF508-CFTR; parameters: which was then ligated into full length pNUT-CFTR linearized using Hpa1 and Pml1; expressed in transfected cells
Summary of the method: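 BHK cells stably expressing 3HA-tagged ΔF508-CFTR (tags in fourth extracellular loop) treated with compound at 20 μM final for 24 h at 37° C. Surface ΔF508-CFTR measured on fixed, non-permeabilised cells by anti-HA/FITC immunofluorescence (488/510 nm), relative to untreated-well background; hits retested in duplicate, intrinsically fluorescent compounds excluded.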

F508del CFTR = target: T2, F508del CFTR (Homo sapiens, UniProt P13569, DEL508-508); assay: YFP fluorescence quenching functional assay (iodide influx), HEK293 cells with F508del CFTR and halide sensitive YFP; conditions: 10 μM, 24 h
T2 construct: expressed in transfected cells; host or cells: HEK293 Griptite cells stably expressing F508del CFTR, transiently transfected with halide-sensitive eYFP
T2 sequence (P13569 with tags, fused parts or gaps DEL508-508): as above
Summary of the method: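 HEK293 Griptite cells stably expressing F508del CFTR, transiently transfected with halide-sensitive eYFP, treated 24 h with 10 μM compound in triplicate, then stimulated 20 min with 25 μM forskolin, 45 μM IBMX and 50 μM genistein. YFP quench after 50 mM iodide imaged 15 times over 40 s on 150-300 cells/well.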

wt CFTR [3] = target: T3, wt CFTR (Homo sapiens, UniProt P13569); assay: three stage ELISA of CFTR surface expression, BHK cells expressing wt CFTR; conditions: 10% glycerol, cells expressing wild-type CFTR
T3 construct: which was then ligated into full length pNUT-CFTR linearized using Hpa1 and Pml1; expressed in transfected cells
T3 sequence (P13569 whole entry): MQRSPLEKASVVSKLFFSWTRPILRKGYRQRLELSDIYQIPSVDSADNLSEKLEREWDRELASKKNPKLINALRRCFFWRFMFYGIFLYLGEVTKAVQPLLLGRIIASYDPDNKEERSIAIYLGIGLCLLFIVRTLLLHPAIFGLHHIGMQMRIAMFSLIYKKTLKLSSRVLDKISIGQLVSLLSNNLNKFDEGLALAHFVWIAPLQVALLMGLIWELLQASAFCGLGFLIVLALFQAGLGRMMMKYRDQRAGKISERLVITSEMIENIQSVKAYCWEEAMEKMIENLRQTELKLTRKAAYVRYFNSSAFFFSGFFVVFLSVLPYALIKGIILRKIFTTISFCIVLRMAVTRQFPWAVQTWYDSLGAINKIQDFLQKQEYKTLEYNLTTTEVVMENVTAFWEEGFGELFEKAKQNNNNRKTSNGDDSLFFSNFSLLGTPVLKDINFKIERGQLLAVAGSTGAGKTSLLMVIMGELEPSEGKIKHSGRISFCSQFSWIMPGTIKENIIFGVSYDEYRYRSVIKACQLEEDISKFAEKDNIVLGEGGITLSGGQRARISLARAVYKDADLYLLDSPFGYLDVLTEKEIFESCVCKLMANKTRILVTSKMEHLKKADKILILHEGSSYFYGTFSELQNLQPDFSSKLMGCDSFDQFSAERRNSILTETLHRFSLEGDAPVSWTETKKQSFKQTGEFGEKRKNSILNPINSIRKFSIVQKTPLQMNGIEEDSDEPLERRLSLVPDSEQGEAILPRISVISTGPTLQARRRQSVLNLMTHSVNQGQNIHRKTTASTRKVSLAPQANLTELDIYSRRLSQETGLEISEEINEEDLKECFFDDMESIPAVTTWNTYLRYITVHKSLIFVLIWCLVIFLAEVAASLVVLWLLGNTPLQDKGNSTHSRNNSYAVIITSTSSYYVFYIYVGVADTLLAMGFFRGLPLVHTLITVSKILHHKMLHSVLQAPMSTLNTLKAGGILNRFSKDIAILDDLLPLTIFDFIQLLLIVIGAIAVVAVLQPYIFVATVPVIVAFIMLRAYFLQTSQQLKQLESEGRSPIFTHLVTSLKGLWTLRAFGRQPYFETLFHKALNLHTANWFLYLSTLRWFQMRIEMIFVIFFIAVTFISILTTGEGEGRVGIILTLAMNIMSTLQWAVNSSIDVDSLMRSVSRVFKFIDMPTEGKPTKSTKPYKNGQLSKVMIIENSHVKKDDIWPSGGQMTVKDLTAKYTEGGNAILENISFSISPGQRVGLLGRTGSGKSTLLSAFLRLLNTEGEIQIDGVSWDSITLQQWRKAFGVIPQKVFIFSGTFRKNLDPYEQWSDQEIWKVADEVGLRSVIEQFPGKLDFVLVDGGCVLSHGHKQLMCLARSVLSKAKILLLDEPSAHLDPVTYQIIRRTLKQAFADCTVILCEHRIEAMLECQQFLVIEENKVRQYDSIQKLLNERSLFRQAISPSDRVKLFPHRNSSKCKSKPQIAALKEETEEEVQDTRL
Description: (§1) Cells were screened for CFTR surface expression using a three stage ELISA system (Pierce Inc., USA). Briefly, BHK cells expressing 3HA-tagged ΔF508-CFTR were seeded in 96-well plates (Corning, USA) at 30,000 cells per well and incubated for 24 h at 37° C. Each well was treated with a test compound for 24 h, then cells were fixed in 4% paraformaldehyde solution and washed with PBS containing 0.1% bovine serum albumin and 0.05% tween-20. Cells were blocked for 1 h in solution containing 3% normal horse serum in PBS at room temperature. […] After washing four more times, the cells were exposed to 3,3′,5,5′ tetramethylbenzidine (Pierce Inc., USA) for 15 min, sulphuric acid (2M) was added, and absorbance was measured at 450 nm (Power-Wavex Bio-tek Instruments).
(§2) To determine if cell surface expression of CFTR could be quantified in a high-throughput screen using this assay, cells expressing tagged versions of wt or ΔF508-CFTR were seeded in 96-well plates, treated with 10% glycerol and monitored as light absorbance using an enzyme-linked assay system. As expected, untreated ΔF508-CFTR cells had low absorbance since they expressed little CFTR on their cell surface under control conditions (FIG. 3A).

ΔF508-CFTR [4] = target: T1, ΔF508-CFTR; assay: immunoblot and densitometry of mature band C, BHK cells expressing ΔF508-CFTR; parameters: which was then ligated into full length pNUT-CFTR linearized using Hpa1 and Pml1; expressed in transfected cells
Description: (§3) Cell lysates were quantitated by Bradford assay (BioRad) and separated by SDS-PAGE (6% polyacrylamide gels) and analyzed by Western blotting. Western blots were blocked using 5% skimmed milk in PBS, then probed overnight at 4° C. with a primary anti-CFTR antibody at a dilution of 1:1000 monoclonal mouse antibody (clone M3A7, Chemicon). The blots were washed four times in PBS before the addition of the secondary HRP-conjugated anti-mouse antibody, at a dilution of 1:5000 (Amersham) for one hour at room temperature. The blots were washed five times in PBS and probed for chemiluminescence (Pierce). All samples were run with equal protein loading as determined using the Bradford assay (Biorad). Densitometry of the immunoblots was performed using the ImageJ program (National Institutes of Health).
Total protein was quantified in cell lysates using the Bradford assay (BioRad, Hercules, Calif.), separated using SDS-PAGE (6% polyacrylamide gels), and analyzed by Western blotting as described previously (Robert et al., 2007). Western blots were blocked with 5% skimmed milk in PBS and probed overnight at 4° C. with a monoclonal primary anti-CFTR antibody (clone M3A7, Chemicon, Temecula, Calif.) diluted 1:1000. The blots were washed four times in PBS before adding the secondary HRP-conjugated anti-mouse antibody at a dilution of 1:5000 (Amersham, Piscataway, N.J.) for one hour at room temperature, then washed again five times in PBS and visualized using chemiluminescence (Pierce, Rockford, Ill.). The relative intensity of each CFTR glycoform (band B or band C) was estimated by densitometry using the ImageJ software and reported as a percentage of the total CFTR in the same lane (i.e. B+C).

ΔF508-CFTR [5] = target: T1, ΔF508-CFTR; assay: three stage ELISA of CFTR surface expression, BHK cells expressing ΔF508-CFTR; parameters: which was then ligated into full length pNUT-CFTR linearized using Hpa1 and Pml1; expressed in transfected cells; conditions: 10% glycerol or 1 mM sodium 4-phenylbutyrate, 24 hours
Description: as §1, §2

wt CFTR [6] = target: T3, wt CFTR; assay: immunoblot and densitometry of mature band C, BHK cells expressing wt CFTR; conditions: 10% glycerol
Description: as §3

ΔF508-CFTR [7] = target: T1, ΔF508-CFTR; assay: iodide efflux assay in BHK cells expressing ΔF508-CFTR; parameters: which was then ligated into full length pNUT-CFTR linearized using Hpa1 and Pml1; expressed in transfected cells; conditions: 24 hours, BHK
Description: Experiments were performed by hand or with a robotic liquid handling system (BioRobot 8000, Qiagen, USA) using Qiagen 4.1 software. Cells were cultured in 24-well plates until they reached confluence in order to perform parallel experiments and comparison analysis. After treatment (or not) with a test compound, medium in each well was replaced with 1 ml of iodide loading buffer (in mM: 136 NaI, 3 KNO3, 2 Ca(NO3)2, 11 glucose and 20 Hepes pH 7.4) for 1 hour at 37° C. to permit the I′ to reach equilibrium. At the beginning of each experiment, the loading buffer was removed by aspiration and cells were washed eight times with efflux buffer (same as loading buffer except that NaI was replaced with 136 mM NaNO3) to remove extracellular I^− in each well. The loss of intracellular I^− was determined by removing the medium and replacing it with fresh efflux buffer every 1 min for up to 11 min. The first four aliquots were recovered at 1-minute intervals in an empty 24-well plate and used to establish a stable baseline in efflux buffer alone. A stimulation buffer (efflux buffer containing 50 μM genistein+10 μM forskolin) was then added and sampling continued with replacement by stimulation buffer. The iodide concentration of each aliquot was determined using an iodide-sensitive electrode (Orion Research Inc., Boston, Mass., USA or Ecomet) and converted to iodide content (i.e. the amount of iodide released during the 1 min interval). Curves were constructed by plotting concentration versus time. Data are presented as means±SEM.
Iodide effluxes were performed using a robotic liquid handling system (BioRobot 8000, Qiagen, Valencia, Calif.) and Qiagen 4.1 software. Cells were cultured to confluence in 24-well plates. After treatment (or not) with a test compound, the medium in each well was replaced with 1 ml of iodide loading buffer: 136 mM NaI, 3 mM KNO3, 2 mM Ca(NO3)2, 11 mM glucose, 20 mM Hepes, pH 7.4 with NaOH) and incubated for 1 h at 37° C. At the beginning of each experiment, the loading buffer was removed by aspiration and cells were washed eight times with 300 μl efflux buffer (same as loading buffer except that NaI was replaced with 136 mM NaNO3) to remove extracellular I^−. Efflux was measured by replacing the medium with 300 μl fresh efflux buffer at 1 min intervals for up to 11 min. The first four aliquots were used to establish a stable baseline, then buffer containing 10 μM forskolin+50 μM genistein was used to stimulate CFTR activity. Iodide concentration was measured in each aliquot (300 μl) using an iodide-sensitive electrode (Orion Research Inc., Boston, Mass.). Relative iodide efflux rate was calculated using the difference between maximum (peak) iodide concentration during stimulation and minimum iodide concentration before stimulation (in μM/min). […]

ΔF508-CFTR [8] = target: T1, ΔF508-CFTR; assay: iodide efflux assay in CFBE41o− airway epithelial cells; parameters: expressed in transfected cells; host or cells: CFBE41o- (ΔF508/ΔF508) transduced with ΔF508-CFTR, TranzVector lentivirus, provided by J. P. Clancy; conditions: 10 μM pretreatment
Description: Experiments were performed by hand or with a robotic liquid handling system (BioRobot 8000, Qiagen, USA) using Qiagen 4.1 software. Cells were cultured in 24-well plates until they reached confluence in order to perform parallel experiments and comparison analysis. After treatment (or not) with a test compound, medium in each well was replaced with 1 ml of iodide loading buffer (in mM: 136 NaI, 3 KNO3, 2 Ca(NO3)2, 11 glucose and 20 Hepes pH 7.4) for 1 hour at 37° C. to permit the I′ to reach equilibrium. […] The loss of intracellular I^− was determined by removing the medium and replacing it with fresh efflux buffer every 1 min for up to 11 min. […] The iodide concentration of each aliquot was determined using an iodide-sensitive electrode (Orion Research Inc., Boston, Mass., USA or Ecomet) and converted to iodide content (i.e. the amount of iodide released during the 1 min interval). […]
Iodide effluxes were performed using a robotic liquid handling system (BioRobot 8000, Qiagen, Valencia, Calif.) and Qiagen 4.1 software. […] Efflux was measured by replacing the medium with 300 μl fresh efflux buffer at 1 min intervals for up to 11 min. […] Iodide concentration was measured in each aliquot (300 μl) using an iodide-sensitive electrode (Orion Research Inc., Boston, Mass.). […]

## COc1ccc(S(=O)(=O)N2CCN(C(C)c3nc(OC4CCCCC4)c4ccccc4n3)CC2)cc1 (stereo not shown) [VRT325]
ΔF508-CFTR [1]
  forskolin+genistein-stimulated Isc: not different from vehicle controls
ΔF508-CFTR [2]; 10 μM, 24 h, compared with vehicle alone
  ΔF508-CFTR surface expression increase, normalized to BHK cells expressing wild-type CFTR: 36%
F508del CFTR
  functional correction in YFP quenching assay: somewhat larger YFP-quenching response

## OCC(O)CO [glycerol]
ΔF508-CFTR [2]; 10% glycerol, ΔF508-CFTR cells
  fluorescence increase in comparison with the untreated cells: 2.7 fold
Wt CFTR [3]
  increase of plasma membrane signal: 2.5 fold
ΔF508-CFTR [4]; 10% glycerol, ΔF508-CFTR
  increase of band C by densitometry: 37 fold
ΔF508-CFTR [5]
  plasma membrane signal (absorbance), words: increased the plasma membrane signal
Wt CFTR [6]
  increase of band C by densitometry: 1.5 fold

## CCCc1nn(C)c2c(=O)[nH]c(-c3cc(S(=O)(=O)N4CCN(C)CC4)ccc3OCC)nc12 [sildenafil]
ΔF508-CFTR [7]; 10 μM pretreatment
  cAMP-stimulated iodide efflux: did not restore a strong cAMP-stimulated iodide efflux responses; also recorded: did not produce significant iodide efflux
ΔF508-CFTR [7]; 1 mM
  cAMP-stimulated iodide efflux: strong cAMP-stimulated iodide efflux was detected; also recorded: function was detected
ΔF508-CFTR [2]; Microsource Discovery library, medium and weak hits, 20 μM, 24 hours
  signal in the trafficking assay: consistently elevated signal
ΔF508-CFTR [4]; after sildenafil treatment
  increase in the intensity of the mature band C: 30%
ΔF508-CFTR [8]
  iodide efflux: negative result
